According to ChEMBL document CHEMBL1150604, “Convolutindole A and convolutamine H, new nematocidal brominated alkaloids from the marine bryozoan Amathia convoluta” (2002):
Calls of active or inactive are those of the source. The rule behind the calls is not given here.

What was measured:
[1] = test system: Heteropogon contortus; test: Nematocidal activity against […] McMaster assessed as inhibition of nematode larval development after 5 days; assay type: functional
[2] = test system: Bacillus subtilis; test: Antibacterial activity against Bacillus subtilis ATCC 6633 at 100 ug/ml after 24 hrs by agar-based microtiter plate assay; assay type: functional, organism-based
[3] = test system: Saccharomyces cerevisiae; test: Antifungal activity against Saccharomyces cerevisiae ATCC 9763 at 200 ug/ml after 24 hrs by agar-based microtiter plate assay; assay type: functional, organism-based
[4] = test system: Bacillus subtilis; test: Antibacterial activity against Bacillus subtilis ATCC 6633 after 24 hrs by agar-based microtiter plate assay; assay type: functional
[5] = test system: Saccharomyces cerevisiae; conditions: ATCC 9763, 50 ug/ml
Description: Antifungal activity against Saccharomyces cerevisiae ATCC 9763 at 50 ug/ml after 24 hrs by agar-based microtiter plate assay

[6] = test system: Bacillus subtilis; conditions: ATCC 6633, 50 ug/ml
Description: Antibacterial activity against Bacillus subtilis ATCC 6633 at 50 ug/ml after 24 hrs by agar-based microtiter plate assay

Compound | LD99 [1] [µg/mL] | LD99 [2] | LD99 [3] | LD99 [4] [µg/mL] | LD99 [5] | LD99 [6]
CNCCc1c(Br)c(Br)c(Br)c(OC)c1OC [CONVOLUTAMINE H] | 0.2 | inactive | inactive | – | – | –
COc1c(Br)cc(Br)c2c(CCN(C)C)c(Br)n(OC)c12 [CONVOLUTINDOLE A] | 0.39 | – | inactive | 50 | – | –
c1ccc([C@H]2CN3CCSC3=N2)cc1 [LEVAMISOLE] | 1.6 | – | – | – | inactive | inactive
